Measured values reported in patent publication US20100273189A1, “NON SEPARATION ASSAYS WITH SELECTIVE SIGNAL INHIBITORS” (BECKMAN COULTER, INC., priority 2009, published 2010).
“And” between values parts separate entries of the source, which are not always exact repeats. Equal entries are not always repeated.

Test system: CK-MB
Test: CK-MB assay, AK-Ab1 particle + HRP-Ab2 conjugate
Format: biochemical
Settings: for RLU: replicates
Procedure: This example describes a method of detecting CK-MB (Creatine Kinase Myocardial Band) using an AK-Abl particle prepared as set forth in Example 3 and a HRP-Ab2 conjugate prepared as set forth in Example 4 where Ab2 represents an antibody to CK-MB. This method employed ascorbic acid to decrease background signal.
HRP-Ab2 conjugate suspensions were prepared at 1.0 μg/mL and contained either 0 or 1 mM ascorbic acid. Samples consisted of human serum samples with the indicated mounts of CK-MB added or no CK-MB as a control. The test procedure consisted of adding 15 μL of 1.0 μg/mL HRP-Ab2 conjugate and 35 μL of MES buffer containing 1 mg/mL BSA and 1 mg/mL MIgG, pH 5.9 to the reaction vessel. Next, 25 μL of patient serum sample was added, followed by 25 μL of 1.0 mg/mL AK-Abl conjugate suspension thereby obtaining 100 μL of total volume in the reaction vessel. After 15.2 minutes, 100 μL of trigger solution A was added to the reaction vessel and the light intensity was recorded on the modified DxI instrument. Chemiluminescence intensity is expressed in Relative Light Units (RLU).

[1] = With Ascorbate, S1, CK-MB 600 pg/mL
[2] = With Ascorbate, S2, CK-MB 3200 pg/mL
[3] = With Ascorbate, S3, CK-MB 9150 pg/mL
[4] = With Ascorbate, S4, CK-MB 26300 pg/mL
[5] = With Ascorbate, S5, CK-MB 94600 pg/mL
[6] = With Ascorbate, S6, CK-MB 268750 pg/mL
[7] = With Ascorbate, S7, CK-MB 1500000 pg/mL

Q: What does the source list for O=C1O[C@H]([C@@H](O)CO)C(O)=C1O [Ascorbic Acid, Ascorbic acid]?
A: RLU (With Ascorbate (1 mM in HRP-Ab2 conjugate), Buffer, CK-MB 0 pg/mL): 1616 RLU and 1536 RLU and 1592 RLU; Mean RLU (With Ascorbate, Buffer, CK-MB 0 pg/mL): 1581 RLU; Mean RLU [1]: 883 RLU; RLU [1]: 948 RLU and 852 RLU and 848 RLU; Mean RLU [2]: 4051 RLU; S/S1 [2]: 4.59; RLU [2]: 4080 RLU and 3928 RLU and 4144 RLU; Mean RLU [3]: 13295 RLU; S/S1 [3]: 15.06; RLU [3]: 12756 RLU and 13108 RLU and 14020 RLU; Mean RLU [4]: 40407 RLU; S/S1 [4]: 45.78; RLU [4]: 41384 RLU and 39448 RLU and 40388 RLU; Mean RLU [5]: 232489 RLU; S/S1 [5]: 263.39; RLU [5]: 222832 RLU and 249468 RLU and 225168 RLU; Mean RLU [6]: 1195177 RLU; S/S1 [6]: 1354.05; RLU [6]: 1187736 RLU and 1121256 RLU and 1276540 RLU; Mean RLU [7]: 3324829 RLU; S/S1 [7]: 3766.80; RLU [7]: 3266772 RLU and 3290024 RLU and 3417692 RLU
